Measurements: PMC6495113, “Sesquiterpenoids and 2-(2-phenylethyl)chromones respectively acting as α-glucosidase and tyrosinase inhibitors from agarwood of an Aquilaria plant” (Journal of Enzyme Inhibition and Medicinal Chemistry, 2019)

Experiments:
[1] = biological target: T1, α-glucosidase (Saccharomyces cerevisiae, UniProt P53341); assay: α-Glucosidase inhibitory assay (p-NPG substrate); settings: for inhibition at 750 µM: read-out: α-glucosidase inhibitory activity 750 μM (%)
Description: The α-glucosidase (G5003, Sigma-Aldrich) was obtained from Saccharomyces cerevisiae and the enzyme inhibitory assay was performed using formerly described method[24] with some modifications. […] The percentage inhibition was calculated using the following equation: % inhibition=[1–(ODcompound–ODblank)/(ODcontrol–ODblank)]×100

[2] = biological target: T2, tyrosinase (Agaricus bisporus, UniProt C7FF04); assay: Tyrosinase inhibitory assay (L-tyrosine substrate); settings: read-out: tyrosinase inhibitory activity 100 μM (%)
Description: After 5 min pre-incubation of the mixture at 37 °C, 50 µL of 2 mM L-tyrosine in buffer were added and incubated for additional 20 min at 37 °C. The control wells contained DMSO instead of compound, and the blank wells were added with buffer in place of L-tyrosine. […] The percentage inhibition was calculated using the formula as below: % inhibition=[1–(ODcompound–ODblank)/(ODcontrol–ODblank)]×100

[3] = biological target: T2, tyrosinase; assay: Kinetic analysis of tyrosinase inhibition (Lineweaver-Burk, secondary re-plots); assay type: biochemical, mushroom
Description: . Briefly, 130 µL of tyrosinase (50 U/mL) solvated in 50 mM phosphate buffer (pH: 6.8) were mixed with 20 µL of 2-fold serial dilutions (from 1 mM to 0.03125 mM) of compounds in DMSO, and transferred into a 96-well plate. After 5 min pre-incubation of the mixture at 37 °C, 50 µL of 2 mM L-tyrosine in buffer were added and incubated for additional 20 min at 37 °C. The control wells contained DMSO instead of compound, and the blank wells were added with buffer in place of L-tyrosine. Kojic acid was used as a positive control. The absorbance was measured at 495 nm using microplate reader. The percentage inhibition was calculated using the formula as below: % inhibition=[1–(ODcompound–ODblank)/(ODcontrol–ODblank)]×100
(§1) The data were expressed as double-reciprocal Lineweaver − Burk plot and the inhibition constants (KI and KIS) were obtained from secondary plots of slope and y intercept of lines from Lineweaver-Burk plot against inhibitor[25].

[4] = biological target: T1, α-glucosidase; assay: Kinetic analysis of α-glucosidase inhibition (Lineweaver-Burk, secondary plot); assay type: biochemical
Description: The α-glucosidase (G5003, Sigma-Aldrich) was obtained from Saccharomyces cerevisiae and the enzyme inhibitory assay was performed using formerly described method[24] with some modifications. […]. The OD values were measured at 405 nm with microplate reader. Acarbose was used as reference compound. The percentage inhibition was calculated using the following equation: % inhibition=[1–(ODcompound–ODblank)/(ODcontrol–ODblank)]×100
as §1

T2 sequence (C7FF04 1-392): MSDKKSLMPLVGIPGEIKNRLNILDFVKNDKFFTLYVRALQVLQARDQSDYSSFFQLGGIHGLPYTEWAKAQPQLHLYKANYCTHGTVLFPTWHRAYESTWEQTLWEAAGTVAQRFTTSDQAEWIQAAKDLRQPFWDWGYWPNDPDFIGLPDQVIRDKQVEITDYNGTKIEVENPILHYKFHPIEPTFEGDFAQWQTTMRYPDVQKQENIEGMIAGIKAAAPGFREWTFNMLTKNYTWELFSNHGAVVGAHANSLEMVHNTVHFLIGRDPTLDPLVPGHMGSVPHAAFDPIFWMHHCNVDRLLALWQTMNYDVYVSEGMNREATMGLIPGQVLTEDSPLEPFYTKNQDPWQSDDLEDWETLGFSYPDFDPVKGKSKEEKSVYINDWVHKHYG
T1 sequence (P53341 whole entry): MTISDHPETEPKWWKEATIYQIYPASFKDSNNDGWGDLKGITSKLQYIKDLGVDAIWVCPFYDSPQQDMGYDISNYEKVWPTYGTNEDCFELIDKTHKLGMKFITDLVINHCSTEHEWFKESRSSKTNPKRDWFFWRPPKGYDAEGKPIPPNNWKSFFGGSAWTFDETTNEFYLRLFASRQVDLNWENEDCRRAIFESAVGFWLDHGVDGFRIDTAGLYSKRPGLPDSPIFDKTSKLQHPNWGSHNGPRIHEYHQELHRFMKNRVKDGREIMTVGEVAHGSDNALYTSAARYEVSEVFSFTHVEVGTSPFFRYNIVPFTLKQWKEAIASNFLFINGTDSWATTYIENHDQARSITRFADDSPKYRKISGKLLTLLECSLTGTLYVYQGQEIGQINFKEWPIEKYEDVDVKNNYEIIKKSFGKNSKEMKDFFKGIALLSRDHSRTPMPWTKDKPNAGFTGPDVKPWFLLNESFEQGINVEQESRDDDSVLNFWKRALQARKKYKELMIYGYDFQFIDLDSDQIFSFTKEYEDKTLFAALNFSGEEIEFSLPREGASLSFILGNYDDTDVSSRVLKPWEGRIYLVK

SMILES	inhibition at 750 µM [1] [%]	inhibition at 100 µM [2] [%]	also measured
CC1CCC2C13CCC(C3)C(O)(CO)C2(C)C (centres unmarked) [Compound 4, Agarozizanol D]	49.9 ± 1.8	< 30	
COc1ccc(CCc2cc(=O)c3cc(O)cc(O)c3o2)cc1 [Compound 14, 6,8-dihydroxy-2-[2-(4-methoxyphenyl)ethyl]chromone]	< 30	65 ± 1.8	type of inhibition of tyrosinase ([3]; Lineweaver-Burk plot): mixed type inhibitors; inhibition constant KIS, binding with enzyme-substrate complex (tyrosinase) ([3]; secondary re-plot of y intercept vs. inhibitor): 72.8 µM
CC1CCC2C13CCC(C3O)C(C)(O)C2(C)C (centres unmarked) [Compound 3, Agarozizanol C]	< 30	< 30	
CC1CCC2C(C)(C)C(CO)C3(O)CCC12C3 (centres unmarked) [Compound 2, Agarozizanol B]	42 ± 2.7	< 30	
C[C@H]1O[C@H](O[C@H]2[C@H](O)[C@@H](O)[C@@H](O[C@H]3[C@H](O)[C@@H](O)C(O)O[C@@H]3CO)O[C@@H]2CO)[C@H](O)[C@@H](O)[C@@H]1N[C@H]1C=C(CO)[C@@H](O)[C@H](O)[C@H]1O (some centres unmarked) [acarbose, reference compound]			α-glucosidase inhibitory activity 750 μM (%) ([1]; 750 μM, means ± SD, three individual experiments): 50.7 ± 1.2%; α-glucosidase inhibition rate ([1]; concentration of 50 µg/mL): 62.06 ± 4.77%
COc1ccc(CCc2cc(=O)c3cc(O)c(OC)cc3o2)cc1O [Compound 13, 6-hydroxy-7-methoxy-2-[2-(3-hydroxy-4-methoxyphenyl)ethyl]chromone]	< 30	53.4 ± 0.7	
COc1ccc(CCc2cc(=O)c3cc(OC)c(O)cc3o2)cc1O [Compound 12, 6-methoxy-7-hydroxy-2-[2-(3-hydroxy-4-methoxyphenyl)ethyl]chromone]	< 30	< 30	
CC1=C2C(O)CC(CO)C23CCC(C3)C1(C)C (centres unmarked) [Compound 6, Agarozizanol F]	< 30	< 30	
O=c1cc(CCc2ccccc2)oc2c1C(O)C(O)C(O)C2Cl (centres unmarked) [Compound 15, 8-chloro-2–(2-phenylethyl)-5,6,7-trihydroxy-5,6,7,8-tetrahydrochromone]	< 30	34.8 ± 1.4	
CC1CCC2C(C)(C)C(C(=O)O)C3CCC12C3 (centres unmarked) [Compound 9, Jinkoholic acid]	48.9 ± 1.1	< 30	
C=C1C2CCC3(C(CO)CCC3C1(C)C)C2O (centres unmarked) [Compound 1, Agarozizanol A]	37.4 ± 1.4	< 30	
COc1ccc(CCc2cc(=O)c3c(o2)C(Cl)C(O)C(O)C3O)cc1 (centres unmarked) [Compound 16, 8-chloro-2–(2-(4-methoxyphenyl)ethyl)-5,6,7-trihydroxy-5,6,7,8-tetrahydrochromone]	< 30	< 30	
CC1=C2CCC(C)C23CCC(C3)C1(C)CO (centres unmarked) [Compound 5, Agarozizanol E]	93.4 ± 3.1	< 30	type of inhibition of α-glucosidase [4]: uncompetitive inhibitors
CC1CCC2C13CCC(C3)C(C)(O)C2(C)C (centres unmarked) [Compound 7, Jinkohol I]	86.9 ± 0.4	< 30	
CC1=C2CCC(CO)C23CCC(C3)C1(C)C (centres unmarked) [Compound 10, isokhusenol]	92.1 ± 3.4	< 30	
CC1CCC2C(C)(C)C(CO)C3CCC12C3 (centres unmarked) [Compound 8, Jinkohol II]	77.3 ± 1	< 30	
